What all share (format): cell-based
Assay [1] relates to PC-3 human prostate cancer cell line. Description: MTT assay, percent cell survival, PC-3. To be noted: PC-3 cells, six days after drug treatment, in µM (unit assumed). As to the method:
(§1) Polyamine- and polyamine analog-amino acid conjugates of the invention were tested for their ability to inhibit growth of various cancer cell lines. The procedures used for testing activity are similar to those used in International Patent Application WO 00/66587 and U.S. Pat. No. 5,889,061 and are described below.
(§2) Human breast cancer cell line MCF7 was grown in Richter's Improved Modified Eagle's Medium supplemented with 10% fetal bovine serum (FBS) and 2.2 g/L sodium bicarbonate. Human brain tumor cell line U251 MG-NCI was grown in Dulbecco's Modified Eagle's Medium supplemented with 10% FBS. Human lung cancer cell line A549 was grown in Ham's F-12K medium (Cellgro, Mediatech, Inc., Va.), supplemented with 10% FBS and 2 mM L-glutamine. Human colon cancer cell line HT129 was cultured in McCoy's 5A medium (Gibco, BRL, Gaithersburg, Md.) supplemented with 10% FBS. Human prostate cancer cell lines PC-3, LNCAP and DuPro were grown in RPMI 1640 Medium (Cellgro, Mediatech, Inc., Va.) supplemented with 10% FBS. […]
(§3) A conventional MTT assay was used to evaluate percent cell survival. […] A microplate reader (“EMAX”-brand, Molecular Devices, Sunnyvale, Calif.) set at 570 nm was used to determine the optical density of the cultures. Results are expressed as a ratio of the optical density in drug-treated wells to the optical density in wells treated with vehicle only.

Assay [2] has as its system DuPro human prostate cancer cell line. Description: MTT assay, percent cell survival, DuPro. Further details: unit not given beside the values. The following applies: DuPro cells, six days after drug treatment. As to the method:
as §1, §2, §3

Assay [3] deals with LnCap human prostate cancer cell line. The experiment in a line: MTT assay, percent cell survival, LnCap. To be noted: LnCap cells, six days after drug treatment, in µM (unit assumed). As to the method: as §1, §2, §3
For assay [4], the system named is DU145 human prostate cancer cell line. The experiment in a line: MTT assay, percent cell survival, DU145. Details: unit not given beside the values. To be noted: DU145 cells, six days after drug treatment. As to the method:
as §1, §2, §3

Molecules are shown by their SMILES.

With `CCNCCCCNCCCCNCCCCNCCCCNC(=O)CCN` [SL-11143], in assay [1], the “ID50 PC-3” value is on record as above 31.25. In assay [2], the “ID50 DuPro” value is 13.75. Also, the “ID50 LnCap” value in assay [3] was 6.4. Moreover, in assay [4], the “ID50 DU145” value turned out to be 0.06.
With `CCNCCCCNCCCCNCCCCNCCCCN(CC)C(=O)C(N)CCC(N)=O` (stereo not shown) [SL-11165], the “ID50 PC-3” value in assay [1] is 4.1. Moreover, in assay [2], the “ID50 DuPro” value is above 31.65. Further, the “ID50 LnCap” value in assay [3] is listed as above 31.25.

For the origin of these results see US7312244B2, “Polyamine analog-amino acid conjugates useful as anticancer agents” (Cellgate, Inc., priority 1999, dated 2007).
